# Assay results from US10342796B2, “Acrylanilide derivative, preparation method, and applications thereof in pharmacy” (Ancureall Pharmaceutical (Shanghai) Co., Ltd., priority 2015, dated 2019).
# Where two headings read alike, the source gives them in different places.
# What was measured:
# Experiment in all cases: Growth inhibition GI50 in vitro (CCK8/MTT, 72 h)
# [1] = tested on: H1299 (EGFR wt, Nras Q61K); format: cell-based, human; details: Homo sapiens, NCI-H1299
# A549 (EGFR WT) = format: cell-based, human; details: Homo sapiens
# [2] = tested on: A431 (EGFR WT, amplification and high expression); format: cell-based, human; details: Homo sapiens, A-431
# [3] = tested on: H460 (EGFR wt, Kras G61H); format: cell-based, human; details: Homo sapiens, NCI-H460
# Calu-3 (Her2 amp) = format: cell-based; details: Homo sapiens
# Description: Human lung adenocarcinoma cell line Calu-3 (ATCC) was cultured with 1×MEM complete medium (10% FBS, 1% double-antibiotics, 1% NEAA (Gibco), 2 mM glutamine and 1 mM of sodium pyruvate). Human breast cancer cell line SK-BR-3 was cultured with McCOY'S5A complete medium (10% FBS). Human colon cancer cell line SNU1040 (HER2 V777M positive) (ATCC) and human bronchoalveolar adenocarcinoma cell line NCI-H1781 (expressing HER2 exon 20 G776VC mutation) (ATCC) were cultured with 1×RPMI1640 complete medium (10% FBS), respectively.
# The suspension cells were collected by centrifugation. The supernatant was discard and the cell pellet was resuspended and counted. Different cell concentrations (5˜10×10^4 cells/mL) were prepared according to the growth cycle of each cell line and then seeded on a 96-well plate (Corning), 100 μL/well. The cells were incubated over night at 37° C., 5% CO2. The compounds were added to the cells on the second day with 2 wells in parallel. The final concentration of organic solvent shall not exceed 1%. The cells were continually incubated for 72 h, and then subjected to MTT assay.
# The present compounds and the reference compounds were dissolved with DMSO (Sigma), respectively. […] The storage concentration of compounds was 10 mM and kept at −20° C. They were diluted by 2 times or 10 times with serial dilution before using.
# Dojindo CCK8 reagent kit was used as MTT assay. […] FC meter was used as microplate reader.
# Adherent cell culture medium was discard and immediately replaced with fresh prepared medium which contains 10% CCK8 reagent (100 μL/well). For the suspension cells, CCK8 was directly added to 10% of the final concentration. The cells were continually incubated for 1˜4 h. When the color of control wells turned to dark yellow, the absorption value was measured at OD450 nm. The cell growth rate was calculated according to the following formula: cell growth rate (%)=100*(T−T0)/(C−T0), T=optical density of drug treatment cell well—optical density of blank control well; T0=optical density of cell well before drug treatment—optical density of blank control well; C=optical density of cell well of solvent control group—optical density of blank control well. […] The experiment was independently repeated 1˜3 times, and subject to biological statistical analysis.
# AU565 (Her2 amp) = format: cell-based, human; details: Homo sapiens
# H292 (EGFR WT) = format: cell-based; details: Homo sapiens, NCI-H292
# SK-BR-3 (Her2 amp) = format: cell-based, human; details: Homo sapiens
# PC-9 (EGFR dE746-A750) = format: cell-based, human; details: Homo sapiens
# H1975 (EGFR L858R/T790M) = format: cell-based, human; details: Homo sapiens, NCI-H1975
# HCC827 (EGFR dE746-A750) = format: cell-based, human; details: Homo sapiens
# N87 (HER2 Amp) = format: cell-based, human; details: Homo sapiens
# [4] = tested on: PC-9ER (EGFR delE746-A750/T790M); format: cell-based, human; details: Homo sapiens, PC-9/ER; EGFR mutant cell line; range of GI50; read-out: GI50 PC9ER
# [5] = H1299, EGFR wt, Nras Q61K, read-out: GI50
# [6] = A549, EGFR wt, Kras G12S, read-out: GI50
# [7] = H460, EGFR wt, Kras G61H, read-out: GI50
# [8] = AU565, EGFR wt, Her2 amp, read-out: GI50
# [9] = PC-9, EGFR dE746-A750, read-out: GI50
# [10] = H1975, EGFR L858R/T790M, read-out: GI50
# [11] = HCC827, EGFR dE746-A750, read-out: GI50
# [12] = N87, EGFR wt, Her2 amp, read-out: GI50
# [13] = EGFR wild type cell line, range of GI50, read-out: GI50 H1299
# [14] = A549, EGFR wild type cell line, range of GI50, read-out: GI50 A549
# [15] = EGFR wild type cell line, range of GI50, read-out: GI50 A431
# [16] = EGFR wild type cell line, range of GI50, read-out: GI50 H460
# [17] = AU565, HER2 positive cell line, range of GI50, read-out: GI50 AU-565
# [18] = SK-BR-3, HER2 positive cell line, range of GI50, read-out: GI50 SK-BR-3
# [19] = EGFR mutant cell line, range of GI50, read-out: GI50 PC-9
# [20] = EGFR mutant cell line, range of GI50, read-out: GI50 H1975
# [21] = HCC827, EGFR mutant cell line, range of GI50, read-out: GI50 HCC827
# [22] = HER2 positive cell line, range of GI50, read-out: GI50 N87
"GI50 [1, 13] [nM]",GI50 (A549 (EGFR WT); [14]) [nM],"GI50 [2, 15] [nM]","GI50 [3, 16] [nM]",GI50 (SK-BR-3 (Her2 amp); [18]) [nM],GI50 (PC-9 (EGFR dE746-A750); [19]) [nM],GI50 (H1975 (EGFR L858R/T790M); [20]) [nM],GI50 (HCC827 (EGFR dE746-A750); [21]) [nM],GI50 [4] [nM],SMILES,"GI50 [1, 5] [nM]",GI50 (A549 (EGFR WT); [6]) [nM],"GI50 ([2]; A431, EGFR wt, read-out: GI50) [nM]","GI50 [3, 7] [nM]",GI50 (AU565 (Her2 amp); [8]) [nM],"GI50 (H292 (EGFR WT); H292, EGFR wt, read-out: GI50) [nM]",GI50 (PC-9 (EGFR dE746-A750); [9]) [nM],GI50 (H1975 (EGFR L858R/T790M); [10]) [nM],GI50 (HCC827 (EGFR dE746-A750); [11]) [nM],GI50 (AU565 (Her2 amp); [17]) [nM],GI50 (N87 (HER2 Amp); [22]) [nM],also measured
,,,,,,,,,"C=CC(=O)Nc1cc(Nc2nccc(-c3cn(C)c4ccccc34)n2)c(OC)cc1N(C)CCN(C)C [AZD9291, reference compound]",> 1000,> 1000,[…],> 1000,312,> 1000,13.9,15.6,15.6,,,"GI50 (A549 (EGFR WT); A549, Table 15, 1000 nM to 0.03 nM serial dilution, read-out: GI50 A549 (EGFR WT)): > 1000 nM; GI50 (Calu-3 (Her2 amp); Calu-3, Table 16, 1000 nM to 0.03 nM serial dilution, read-out: GI50 Calu3 (HER2 amp)): 657 nM; GI50 (Calu-3 (Her2 amp); Calu-3, EGFR wt, Her2 amp, read-out: GI50): 686 nM; GI50 (H292 (EGFR WT); Table 15, 1000 nM to 0.03 nM serial dilution, read-out: GI50 H292 (EGFR WT)): > 1000 nM; GI50 (SK-BR-3 (Her2 amp); SK-BR-3): 643 nM; GI50 (PC-9 (EGFR dE746-A750); Table 15, 1000 nM to 0.03 nM serial dilution, read-out: GI50 PC-9 (EGFR dE746-A750)): 13.9 nM; GI50 (H1975 (EGFR L858R/T790M); Table 15, 1000 nM to 0.03 nM serial dilution, read-out: GI50 H1975 (EGFR L858R/T790M)): 15.6 nM; GI50 (N87 (HER2 Amp); [12]): 234 nM; GI50 (N87 (HER2 Amp); Table 16, 1000 nM to 0.03 nM serial dilution, read-out: GI50 N87 (HER2 amp)): 219 nM"
> 1000,> 1000,100 to 1000,> 1000,100 to 1000,< 10,10 to 100,< 10,10 to 100,"C=CC(=O)Nc1cc(Nc2nccc(-n3ccc4ccc(F)cc43)n2)c(OC)cc1N(C)CCN(C)C [Compound 63, N-(5-(4-(6-fluoro-1H-indol-1-yl)-pyrimidin-2-ylamino)-2-((2-(dimethylamino)ethyl)-methyl-amino)-4-methoxyl-phenyl)-acrylamide]",,,,,,,,,,100 to 1000,10 to 100,
> 1000,> 1000,100 to 1000,> 1000,10 to 100,10 to 100,10 to 100,10 to 100,10 to 100,C=CC(=O)Nc1cc(Nc2nccc(-n3cnc4ccccc43)n2)c(OC)cc1N(C)CCN(C)C [Compound 106],> 1000,> 1000,498,> 1000,19.5,> 1000,15.6,15.2,12.6,10 to 100,10 to 100,"GI50 (SK-BR-3 (Her2 amp); SK-BR-3, EGFR wt, Her2 amp, read-out: GI50): 101 nM; GI50 (N87 (HER2 Amp); [12]): 23.6 nM"
> 1000,> 1000,100 to 1000,> 1000,< 10,< 10,10 to 100,< 10,< 10,"C=CC(=O)Nc1cc(Nc2ncnc(Nc3cccc(Br)c3)n2)c(OC)cc1N(C)CCN(C)C [Compound 115, N-(5-(4-(3-bromo-phenylamino)-[1,3,5]triazin-2-ylamino)-2-((2-dimethylamino-ethyl)-methyl-amino)-4-methoxyl-phenyl)-acrylamide]",,,,,,,,,,10 to 100,< 10,
